# Settings: buffer; pH 7.4; 200.0 µM
row,Structure (SMILES),solubility kinetic [mg/mL]
1,CN(c1ccc(OCC(=O)NC2CCC(O)CC2)cc1)S(=O)(=O)c1ccc(Cl)cc1 (centres undefined),> 0.0679
2,Cc1ncc(CN2CCC(CO)(CCOc3ccccc3)CC2)s1,0.0482
3,Cc1cccc(N2CCCn3c2nc2c3c(=O)[nH]c(=O)n2C)c1,> 0.0467
4,COc1ccc2cc(C(=O)N(C)Cc3ccccc3)[nH]c2c1,< 0.0003
5,O=[N+]([O-])c1ccccc1S(=O)(=O)Nc1cccc(S(=O)(=O)N2CCCC2)c1,> 0.0617
6,COc1ccc2c(c1)C(NC(C)=O)C(=O)N2CCc1ccccc1 (centres undefined),0.0466
7,CC1CCCC(C)N1C(=O)COC(=O)c1ccc2ccccc2n1 (centres undefined),0.0153
8,Cc1ccc(S(=O)(=O)N2CCCCC2)c2nsnc12,0.0319
9,Cc1cc(C(=O)Nc2ccccc2[N+](=O)[O-])cs1,0.0016
10,O=[N+]([O-])c1ccc(N2CCN(Cc3ccncc3)CC2)cc1,0.0353
11,Cc1ccc(NC(=S)N2CCc3[nH]c4ccccc4c3C2)cc1,0.0008
12,Cc1ccc(C(=O)Oc2ccc(N3C(=O)CCC3=O)c(C)c2)cc1,< 0.0007
13,O=[N+]([O-])c1ccccc1S(=O)(=O)N1CCCC(C(F)(F)F)C1 (centres undefined),0.0031
14,CCC(C)[C@H](NC(=O)N1CCC(C)CC1)C(=O)O (some centres undefined),> 0.0385
15,CCOC(=O)c1cn2ccc(C)cc2n1,> 0.0306
16,NC(=O)CCC(NC(=S)Nc1ccccc1)C(=O)O (centres undefined),0.0393
17,Clc1ccc(Cc2ccccn2)cc1,0.0063
18,CCc1ccc(NC(=O)Cn2cc([N+](=O)[O-])nc2C)cc1,0.0067
19,O=C(COC(=O)c1cnccn1)Nc1ccc(Cl)cn1,> 0.0439
20,O=C1N=C(N2CCOCC2)S/C1=C/c1cc2c(cc1[N+](=O)[O-])OCO2,0.0448
21,CSCC[C@H](NC(=O)Nc1cccc(Br)c1)C(=O)O,0.0394
22,Cc1cc(C(=O)N/N=C2\CCCC(=O)C2)c(C)o1,> 0.0372
23,O=C(CN1CCN(S(=O)(=O)c2ccc(Cl)cc2)CC1)N1CCCC1,0.0487
24,O=[N+]([O-])c1cc(Cl)ccc1N1CCOCC1,0.0244

row,Structure (SMILES),solubility kinetic [mg/mL]
1,CCN(CC)C(=O)Oc1ccc(NC(=O)N2CCOCC2)cc1,> 0.0482
2,COc1ccc(NC(=S)Nc2ccccc2)cc1,> 0.0388
3,N#CCOc1coc(CN2CCN(c3ccccc3)CC2)cc1=O,> 0.0488
4,O=C(c1ccc(F)cc1)N1CCOCC1,> 0.0314
5,Cc1cc([N+](=O)[O-])nn1CC(=O)NCCCN1CCOCC1,> 0.0467
6,COc1ccc(NC(=S)N2CCN(S(C)(=O)=O)CC2)cc1,> 0.0494
7,Cc1cc(C)cc(NC(=O)Nc2cccnc2)c1,> 0.0362
8,Cc1ccccc1OCCNCC(C)O.O=C(O)C(=O)O (centres undefined),0.027
9,N#CNC(=Nc1ccc(Cl)cc1)Oc1ccccc1,0.0019
10,Nc1nc(NCc2ccco2)nc(Nc2ccc(F)cc2)c1[N+](=O)[O-],0.0001
11,CC1CN(CC(=O)Nc2ccc([N+](=O)[O-])cc2Br)CC(C)O1 (centres undefined),0.0064
12,NC(=O)CN(Cc1ccccc1)S(=O)(=O)c1ccc2c(c1)OCCO2,> 0.0544
13,O=c1oc(/C=C/c2ccc([N+](=O)[O-])s2)nc2ccccc12,0.0005
14,Nc1ccccc1SCC(O)Cn1ccc2ccccc21 (centres undefined),> 0.0448
15,COc1ccc(CCNCC(=O)Nc2ccc(OC(F)F)cc2)cc1,0.0344
16,CC1=CC(C)(C)NC(=S)N1c1cc(C)cc(C)c1,0.0087
17,CCOc1ccccc1NC(=O)NC1Cc2ccccc2C1,< 0.0003
18,COc1cccc(C(=O)Nc2cccc(NC(=O)c3ccccc3Cl)c2)c1,0.0074
19,CCN(C(=O)COC(=O)/C=C/c1ccco1)C1CCCCC1,0.0391
20,c1cncc(CNc2nc(-c3cccnc3)nc3ccccc23)c1,> 0.047
21,COc1ccc(NS(=O)(=O)c2ccc(F)cc2F)cn1,0.0433
22,CC#CC[N+](C)(C)CCCCCCCCCC.[Br-],> 0.0478
23,CN(C)c1ccc(C(=O)NCCCSc2ccccc2)cc1,0.0039
24,CCCCC(=O)N=c1sc2c(OC)ccc(OC)c2n1C,< 0.0003

row,Structure (SMILES),solubility kinetic [mg/mL]
1,O=C(COC(=O)c1cc(Cl)nc(Cl)c1)Nc1ccc(Cl)c(S(=O)(=O)N2CCOCC2)c1,0.0317
2,Cc1ccc(NC(=O)c2cnccn2)cc1C,0.0317
3,COc1ccc(CCNC(=O)Nc2cccc([N+](=O)[O-])c2)cc1,0.0023
4,CC1(C)CC(=O)C2=C(C1)Nc1ccccc1NC2c1cccc(F)c1 (centres undefined),> 0.0505
5,Cc1nc(C)c(C(=O)OCC(=O)Nc2cccc(C)c2C)s1,0.0397
6,CCCCN(C)C1CCN(C(=S)Nc2ccc(OC)cc2)CC1,> 0.0503
7,Cc1onc(-c2c(Cl)cccc2Cl)c1C(=O)O/N=C(\C#N)c1c(Cl)cccc1Cl,0.0629
8,COc1cc(S(=O)(=O)NCc2ccc3c(c2)OCO3)ccc1F,0.0148
9,COc1ccc(NC(=O)CSc2ccccc2)c([N+](=O)[O-])c1,0.0034
10,Cl.O=C(Nc1cccc(Cl)c1)NC1CCN(C2CCCCC2)C1 (centres undefined),> 0.0537
11,CCC[N+](CC#CCO)(CC#Cc1ccccc1)CCC.[Br-],> 0.0546
12,Cc1occc1C(=O)O/N=C(\N)c1ccc(Cl)cc1,0.0091
13,CCS(=O)(=O)Nc1cccc(C(=O)O)c1,0.0305
14,Cc1ccc(C)c(S(=O)(=O)c2c[nH]c(=S)[nH]c2=O)c1,0.0366
15,OCC(O)C1OC(Nc2ccc(Br)cc2)C(O)C1O (centres undefined),> 0.0501
16,CN(C)C(CNS(=O)(=O)c1ccc(Cl)cc1F)c1ccco1.Cl (centres undefined),> 0.0575
17,O=C(NCc1ccc(F)cc1)C1CC(=O)N(Cc2ccco2)C1 (centres undefined),> 0.0474
18,O=C(Nc1cccc(Cl)c1N1CCOCC1)c1ccco1,0.0057
19,Cc1cc(C)cc(OCC(=O)Nc2cnn(CCCC(=O)O)c2)c1,> 0.0497
20,CC(C)(C)NC(=O)CCCCCCCC(=O)NC(C)(C)C,> 0.0448
21,Nc1c(Cl)ncnc1NCc1ccccc1,0.0326
22,Cc1nc(CCNS(=O)(=O)c2cccnc2)cs1,> 0.0425
23,CCCCNC(=O)C1CC(=O)N(CCc2ccc(C)cc2)C1 (centres undefined),> 0.0454
24,CCCOc1ccc(/C=C2\SC(N)=NC2=O)cc1OC,0.0025

row,Structure (SMILES),solubility kinetic [mg/mL]
1,Cc1cc(C)nc(NC(=O)Cc2ccc(Br)cc2)n1,> 0.048
2,COCc1c(C(=O)OCC(=O)Nc2ccc(OC(F)F)cc2)oc2ccccc12,0.0134
3,O=C1NC(=O)C(Sc2ccccc2[N+](=O)[O-])C(=O)N1,> 0.0422
4,CS(=O)(=O)Nc1ccc2c(c1)OCC(=O)N2Cc1ccccc1,0.0424
5,COC(=O)c1cc(S(=O)(=O)N(C)C2CCCCC2)cn1C,0.045
6,CCc1cccc(C)c1NS(=O)(=O)Cc1ccccc1,> 0.0434
7,COc1ccc(C2C(C#N)=C(N)Oc3cc(O)ccc32)cc1Cl (centres undefined),0.0435
8,Cc1nc(Cl)c(C(=O)NCc2ccccc2)c(C)c1Cl,0.0356
9,CCc1c(C)c(C#N)c2[nH]c3ccccc3n2c1=S,0.0066
10,O=C(Nc1cc([N+](=O)[O-])ccc1O)NC1CCS(=O)(=O)C1 (centres undefined),> 0.0473
11,CCOC(=O)c1nc(-c2ccc(OC)c(OC)c2)no1,0.0408
12,COC(=O)c1ccc(NC(=O)C2CC3CCC2C3)cc1 (centres undefined),0.0081
13,Cc1ccsc1C(=O)OC(C)C(=O)Nc1ccc(Cl)cn1 (centres undefined),0.0286
14,CC(=O)c1cc(C#N)c(SCc2ccccn2)nc1C,0.0102
15,CCCCNS(=O)(=O)c1ccc2nc(SCC(N)=O)[nH]c2c1,> 0.0514
16,CN1C(N)=NC(=O)/C1=C\c1ccc(Br)cc1,0.0337
17,Nc1c(Cl)ncnc1NCC(O)CO (centres undefined),> 0.0328
18,Cl.O=C(NCCCN1CCOCC1)C(=O)c1c[nH]c2ccccc12,> 0.0528
19,O=C(Nc1nc2ccc(Cl)cc2s1)C1CC1,0.0048
20,CC1CC(C)CN(C(=O)COC(=O)/C=C/c2ccco2)C1 (centres undefined),> 0.0437
21,CC(C)CN1CCN(Cc2c[nH]c3ccccc23)CC1CCO (centres undefined),0.0333
22,Cc1cccc(C(=O)OCC(=O)NCC2COc3ccccc3O2)c1 (centres undefined),0.0059
23,O=C(NC1CCCCC1)C1CC(=O)N(c2cccc([N+](=O)[O-])c2)C1 (centres undefined),0.0078
24,CCCOCc1ccc(O)c2ncccc12,0.0196

row,Structure (SMILES),solubility kinetic [mg/mL]
1,O=C1NC(=Nc2ccc(O)cc2)S/C1=C\C=C\c1ccco1,0.0047
2,COc1cccc(-c2nc(-c3cccs3)no2)c1,< 0.0003
3,Cc1onc(-c2ccccc2)c1C(=O)OCC(=O)N(C)c1ccccc1,0.0392
4,Cc1ccccc1C(=O)N1CCC(C(=O)Nc2nccs2)CC1,0.0467
5,CCOC(=O)Cc1csc(N(C)C)n1,0.0254
6,Cc1ccc(NC(=O)C2CCN(C(=O)c3cccs3)CC2)c(C)c1,0.0366
7,O=C(Nc1ccccc1N1CCOCC1)c1ccc2c(c1)OCCO2,0.0056
8,COc1ccccc1-n1cc(-c2ccccc2)c2c(=S)nc[nH]c21,0.0106
9,CN(CC(=O)Nc1ccc(Cl)c(Cl)c1)C(=O)C1CCC1,> 0.0473
10,Cc1ccc(C)c(C(=O)NC(C)CCc2ccccc2)c1 (centres undefined),0.0007
11,CC(=O)N/C(=C\c1ccccc1)C(=O)OCc1ccc(C)cc1,> 0.0464
12,O=C1Cc2ccccc2C(=O)N1c1ccccc1,0.0351
13,COc1cccc(N=Cc2c(O)n(Cc3ccco3)c(=O)[nH]c2=O)c1,0.0061
14,CCc1ccc(OCC(=O)N2CC(C(=O)OC)Oc3ccccc32)cc1 (centres undefined),0.0366
15,COc1ccccc1Nc1ccc(C(=O)O)cc1[N+](=O)[O-],> 0.0432
16,O=C(Nc1ccon1)Nc1ccc(Cl)cc1Cl,0.0016
17,O=C(CN1C(=O)NC(Cc2c[nH]c3ccccc23)C1=O)Nc1ccc(F)cc1F (centres undefined),0.019
18,Cc1ccc(-n2c(C)c(C)c3c(NCCCO)ncnc32)cc1,> 0.0466
19,O=C(O)c1cn(-c2ccc(F)cc2)c2cc(Cl)c(F)cc2c1=O,> 0.0504
20,CC(=O)N/C(=C/c1ccc2c(c1)OCO2)C(=O)N1CCOCC1,0.045
21,O=C(CN1C(=O)c2ccccc2S1(=O)=O)NC1CCCCC1,> 0.0484
22,O=C(CNC(=O)c1sc2ccccc2c1Cl)NC1CC1,0.004
23,Cc1ccc(/C=C/C(=O)OCC(=O)c2ccc3c(c2)NC(=O)CO3)o1,0.0178

# Source: PubChem BioAssay AID1996
